# Measured values as given in patent US20250302833A1, “PHARMACEUTICAL COMPOSITION FOR TREATING OR PREVENTING CYSTIC DISEASE” (CHUGAI SEIYAKU KABUSHIKI KAISHA, priority 2022, published 2025).
# Biological target: T1, human PiT1 (Homo sapiens, UniProt Q8WUM9)
# T1 construct: expressed in transfected cells; host or cells: CHO cells, transient transfection with Fugene HD
# T1 sequence (Q8WUM9 1-679): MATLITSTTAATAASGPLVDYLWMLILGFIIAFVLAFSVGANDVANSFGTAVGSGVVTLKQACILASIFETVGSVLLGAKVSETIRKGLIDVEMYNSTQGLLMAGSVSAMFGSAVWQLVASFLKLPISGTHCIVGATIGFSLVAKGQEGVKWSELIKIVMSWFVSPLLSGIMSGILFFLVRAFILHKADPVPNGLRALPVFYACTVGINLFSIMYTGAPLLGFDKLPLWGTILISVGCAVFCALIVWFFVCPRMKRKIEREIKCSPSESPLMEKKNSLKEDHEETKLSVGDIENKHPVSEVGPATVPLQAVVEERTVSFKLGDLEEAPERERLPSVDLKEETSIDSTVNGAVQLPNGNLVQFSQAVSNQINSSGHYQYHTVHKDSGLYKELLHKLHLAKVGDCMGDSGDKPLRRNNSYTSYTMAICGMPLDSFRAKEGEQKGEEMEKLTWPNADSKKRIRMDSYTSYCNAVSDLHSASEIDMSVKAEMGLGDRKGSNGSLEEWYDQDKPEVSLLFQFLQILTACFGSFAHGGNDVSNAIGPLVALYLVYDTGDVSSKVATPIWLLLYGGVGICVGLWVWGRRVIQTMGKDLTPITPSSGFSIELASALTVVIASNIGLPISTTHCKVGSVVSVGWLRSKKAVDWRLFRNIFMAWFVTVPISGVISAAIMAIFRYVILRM
# Assay: 33PO4 uptake inhibition in CHO cells expressing human PiT1
# Assay type: cell-based
# Settings: CHO cells transiently expressing human PiT1, pH 6.5
# Experimental: For transient expression, human NaPi-IIb expression plasmids, human PiT1 expression plasmids, human PiT2 expression plasmids, and Fugene HD Transfection (Promega Corporation) were added to CHO cells using a 96-well plate, and the plate was incubated in a C02 incubator for 16 hours. The medium was replaced with buffer A (145 mM choline chloride, 3 mM KCl, 1 mM CaCl2), 0.5 mM MgCl2, 5 mM glucose, 5 mM MES, (pH 6.5)), and then replaced with buffer B (145 mM NaCl, 3 mM KCl, 1 mM CaCl2, 0.5 mM MgCl2, 5 mM glucose, 5 mM MES (pH 6.5)) to which a test compound was added at the final concentration of 0.01, 0.03, 0.1, 0.3, 1, 3, 10, or 30 μM, buffer A to which DMSO was added, or buffer B to which DMSO was added. After a certain time, a 1/20 amount of buffer A containing ^33PO4 (PerkinElmer Japan G. K.) was added and reacted at room temperature. After washing with ice-cooled buffer A, a liquid scintillator (MicroScint™-20, item number 6013621, PerkinElmer Japan G.K.) was added, and the ^33PO4 uptake amount was measured with the top count (Top Count NXT, PerkinElmer Japan G.K.). The inhibition rate was determined by the following formula. Here, a certain time was set to 10 minutes. […]
compound,measurement,value
"CCCN([C@H]1CC[C@H](C(=O)[O-])CC1)S(=O)(=O)c1cccc(C(=O)Nc2sc3c(c2C(=O)Nc2ccc(CCCc4ccc(C(=O)[O-])cc4)cc2)CCCC3)c1.[Na+].[Na+] [Compound 4, Disodium; 4-[3-[4-[[2-[[3-[(4-carboxylatocyclohexyl)-propylsulfamoyl]benzoyl]ami-no]-4,5,6,7-tetrahydro-1-benzothiophene-3-carbonyl]amino]phenyl]pro-pyl]benzoic acid]",IC50,> 30 µM
